The assay addresses purified human Factor XIa (Homo sapiens (Human), UniProt P03951). The assay is described as follows: Factor XIa chromogenic substrate (S-2366) inhibition assay. Format: biochemical. As to the method: The effectiveness of compounds of the present invention as inhibitors of the coagulation factors XIa, VIIa, IXa, Xa, XIIa, plasma kallikrein or thrombin, can be determined using a relevant purified serine protease, respectively, and an appropriate synthetic substrate. The rate of hydrolysis of the chromogenic or fluorogenic substrate by the relevant serine protease was measured both in the absence and presence of compounds of the present invention. […] A decrease in the rate of absorbance or fluorescence change in the presence of inhibitor is indicative of enzyme inhibition. Such methods are known to one skilled in the art. The results of this assay are expressed as the inhibitory constant, Ki. […] JT Baker or Fisher Scientific). […] Values of Ki were determined by allowing the protease to react with the substrate in the presence of the inhibitor. Reactions were allowed to go for periods of 20-180 minutes (depending on the protease) and the velocities (rate of absorbance or fluorescence change versus time) were measured.

[1] abbreviates: substrate S-2366, activity ranges, Table A.

These results are taken from US10208021B2, “Substituted tetrahydroisoquinoline compounds as factor XIa inhibitors” (BRISTOL-MYERS SQUIBB COMPANY, priority 2011, dated 2019).

Structures can show the parent of a compound that is named as a salt.

Chain of purified human Factor XIa (P03951 388-625): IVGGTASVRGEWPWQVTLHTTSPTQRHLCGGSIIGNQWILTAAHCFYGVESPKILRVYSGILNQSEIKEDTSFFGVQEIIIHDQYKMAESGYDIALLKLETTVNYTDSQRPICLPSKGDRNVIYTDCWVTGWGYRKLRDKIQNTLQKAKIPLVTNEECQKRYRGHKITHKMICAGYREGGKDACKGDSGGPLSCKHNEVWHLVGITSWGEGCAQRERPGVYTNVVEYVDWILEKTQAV
Chain of purified human Factor XIa (P03951 19-387 partner): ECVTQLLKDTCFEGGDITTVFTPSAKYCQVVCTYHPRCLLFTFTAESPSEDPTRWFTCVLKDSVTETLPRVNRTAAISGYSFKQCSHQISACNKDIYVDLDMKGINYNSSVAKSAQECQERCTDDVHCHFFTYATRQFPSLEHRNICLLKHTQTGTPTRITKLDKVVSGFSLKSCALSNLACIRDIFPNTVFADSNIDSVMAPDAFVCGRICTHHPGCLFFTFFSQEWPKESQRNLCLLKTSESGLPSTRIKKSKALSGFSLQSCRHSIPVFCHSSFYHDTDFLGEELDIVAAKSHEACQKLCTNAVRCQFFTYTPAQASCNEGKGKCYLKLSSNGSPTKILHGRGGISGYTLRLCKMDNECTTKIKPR

On to `CCOC(=O)c1ccc(NC(=O)C2c3cccc(N4CCC(N5CCCC5)CC4)c3CCN2C(=O)C=Cc2c(C#N)ccc(Cl)c2F)cc1` (stereo not drawn) [Example 166], for which the Ki – broadly, a dissociation constant, usually derived from enzyme kinetics or from competition with a known ligand – under setting [1] was in the range of 5 to 10 nM.

In turn, `CCOC(=O)C1CCN(c2cccc3c2CCN(C(=O)/C=C/c2c(-n4cnnn4)ccc(Cl)c2F)C3C(=O)Nc2ccc(C(=O)O)cc2)CC1` (racemic) [Example 136] yielded a Ki under setting [1] of less than 5 nM.

On to `CC1(C)Cc2c(cccc2N2CCCCC2)[C@@H](C(=O)Nc2ccc(C(=O)O)cc2)N1C(=O)/C=C/c1c(-n2cnnn2)ccc(Cl)c1F` [Example 195], for which, under setting [1], the Ki was less than 5 nM.

The molecule `CC(=O)c1ccc(Cl)c(F)c1/C=C/C(=O)N1CCc2c(cccc2N2CCC(C(=O)N(C)C)CC2)[C@H]1C(=O)Nc1ccc(C(=O)O)cc1` [Example 219] showed a Ki under setting [1] of less than 5 nM.

Take `O=C(O)c1ccc(NC(=O)C2c3cccc(N4CCC5(CCNCC5)CC4)c3CCN2C(=O)/C=C/c2c(-n3cnnn3)ccc(Cl)c2F)cc1` (racemic) [Example 146]: the Ki under setting [1] is less than 5 nM.

On to `CC(C)(C)OC(=O)c1ccc(NC(=O)C2c3cccc(N4CCNCC4)c3CCN2C(=O)/C=C/c2c(-n3cnnn3)ccc(Cl)c2F)cc1` (stereo not drawn) [Example 7], for which, where the note is “substrate S-2366, Table 1”, the Ki stood at 49.7 nM. That is a double-digit nanomolar value.

In turn, `O=C(Nc1ccc2cnn(C(=O)OCc3ccccc3)c2c1)C1c2cccc(N3CCNCC3)c2CCN1C(=O)/C=C/c1c(-n2cnnn2)ccc(Cl)c1F` (stereo not drawn) [Example 9] yielded an inhibition constant (Ki) under setting [1] of 5 to 10 nM.

`CNC(=O)N1CCCN(c2cccc3c2CCN(C(=O)/C=C/c2c(-n4cnnn4)ccc(Cl)c2F)C3C(=O)Nc2ccc(C(=O)O)cc2)CC1` (racemic) [Example 259]: the Ki under setting [1] is less than 5 nM.

`CN(C)[C@@H]1CCN(c2cccc3c2CCN(C(=O)/C=C/c2c(-n4cnnn4)ccc(Cl)c2F)[C@H]3C(=O)Nc2ccc(C(=O)O)cc2)C1` [Example 209, 4-((R)-2-((E)-3-(3-Chloro-2-fluoro-6-(1H-tetrazol-1-yl)phenyl)acryloyl)-5-((R)-3-(dimethylamino)pyrrolidin-1-yl)-1,2,3,4-tetrahydroisoquinoline-1-carboxamido)benzoic acid, bis TFA salt]: the inhibition constant (Ki) under setting [1] is less than 5 nM.

Take `CCOC(=O)c1cc(C)n(-c2cccc3c2CCN(C(=O)/C=C/c2c(-n4cnnn4)ccc(Cl)c2F)C3C(=O)Nc2ccc(F)cc2)n1` (stereo not drawn) [Example 242, (E)-Ethyl 1-(2-(3-(3-chloro-2-fluoro-6-(1H-tetrazol-1-yl)phenyl)acryloyl)-1-(4-fluorophenylcarbamoyl)-1,2,3,4-tetrahydroisoquinolin-5-yl)-5-methyl-1H-pyrazole-3-carboxylate]: the inhibition constant Ki under setting [1] lay within 100 to 500 nM.

The molecule `COC(=O)[C@H]1CC[C@@H](NC(=O)C2c3cccc(N4CCC(N5CCCC5)CC4)c3CCN2C(=O)/C=C/c2c(-n3cnnn3)ccc(Cl)c2F)CC1` (mixture of isomers) [Example 233] had a Ki under setting [1] of 5 to 10 nM.

As for `CC(=O)c1ccc(Cl)c(F)c1C=CC(=O)N1CCc2c(cccc2N2CCC(N3CCCC3)CC2)C1C(=O)Nc1ccc(C(=O)OCCn2cncn2)cc1` (stereo not drawn) [Example 173], the Ki under setting [1] lay within 5 to 10 nM.

Molecule `CN1CCCN(c2cccc3c2CCN(C(=O)C=Cc2c(-n4cnnn4)ccc(Cl)c2F)C3C(=O)Nc2ccc(C(=O)O)cc2)CC1` (stereo not drawn) [Example 265] displayed a Ki under setting [1] of less than 5 nM.

For the molecule `CC(=O)N1CCN(c2cccc3c2CC(C)(C)N(C(=O)/C=C/c2c(-n4cnnn4)ccc(Cl)c2F)[C@H]3C(=O)Nc2ccc(C(=O)O)cc2)CC1` [Example 205], the Ki under setting [1] is 5 to 10 nM.

With `O=C(O)c1ccc(NC(=O)C2c3cccc(N4CCC(N5CCCC5)CC4)c3CCN2C(=O)/C=C/c2cc(Cl)ccc2OC(F)F)cc1` (racemic) [Example 159], the Ki under setting [1] is less than 5 nM.

Turning to `CC(C)(C)OC(=O)c1ccc(NC(=O)C2c3cccc(N4CCC(N5CCCC5)CC4)c3CCN2C(=O)/C=C/c2c(-n3cnnn3)ccc(Cl)c2F)cc1` (racemic) [Example 84], the Ki under setting [1] was less than 5 nM.

Turning to `N#CC1CCN(c2cccc3c2CCN(C(=O)/C=C/c2c(-n4cnnn4)ccc(Cl)c2F)C3C(=O)Nc2ccc(C(=O)O)cc2)CC1` (racemic) [Example 147], the Ki under setting [1] was less than 5 nM.

On to `O=C(O)c1ccc(NC(=O)C2c3cccc(N4CCC(N5CCCC5)CC4)c3CCN2C(=O)/C=C/c2c(O)ccc(Cl)c2F)cc1` (racemic) [Example 162], for which the inhibition constant (Ki) under setting [1] is less than 5 nM.

As for `O=C(Nc1ccccc1)C1c2cccc(N3CCNCC3)c2CCN1C(=O)/C=C/c1c(-n2cnnn2)ccc(Cl)c1F` (stereo not drawn) [Example 8], the Ki under setting [1] is 5 to 10 nM.

In turn, `O=C(NC1CC1)c1ccc(NC(=O)C2c3cccc(N4CCNCC4)c3CCN2C(=O)/C=C/c2cc(Cl)c(F)cc2-n2cnnn2)cc1` (racemic) [Example 67] had a Ki under setting [1] of 100 to 500 nM.

Under setting [1], `O=C(O)c1ccc(NC(=O)C2c3cccc(N4CCC(N5CCCC5)CC4)c3CCN2C(=O)/C=C/c2c(-n3cnnn3)ccc(Cl)c2F)cc1` (stereo not drawn) [Example 80, (E)-4-(2-(3-(3-Chloro-2-fluoro-6-(1H-tetrazol-1-yl)phenyl)acryloyl)-5-(4-(pyrrolidin-1-yl)piperidin-1-yl)-1,2,3,4-tetrahydroisoquinoline-1-carboxamido)benzoic acid, bis TFA Salt] yielded a Ki of less than 5 nM.

Under setting [1], `N#Cc1ccc(Cl)c(F)c1C=CC(=O)N1CCc2c(cccc2N2CCC(N3CCCC3)CC2)C1C(=O)Nc1ccc(C(=O)O)cc1` (stereo not drawn) [Example 164] showed a Ki of less than 5 nM.

`CC(C)(C)OC(=O)c1ccc(NC(=O)C2c3cccc(N4CCN(C(=O)OC(C)(C)C)CC4=O)c3CCN2C(=O)/C=C/c2c(-n3cnnn3)ccc(Cl)c2F)cc1` (racemic) [Example 55] returned a Ki under setting [1] of 100 to 500 nM.

Under setting [1], `CC(=O)c1ccc(Cl)c(F)c1/C=C/C(=O)N1CCc2c(cccc2N2CCC(N3CCOCC3)CC2)C1C(=O)Nc1ccc(C(=O)O)cc1` (racemic) [Example 220] returned a Ki of less than 5 nM.

`O=C(O)c1ccc(NC(=O)C2c3cccc(N4CCCCCC4)c3CCN2C(=O)/C=C/c2c(-n3cnnn3)ccc(Cl)c2F)cc1` (racemic) [Example 258] came in with an inhibitory constant (Ki) under setting [1] of less than 5 nM.

Take `O=C(O)c1ccc(NC(=O)C2c3cccc(N4CCC(N5CCCC5)CC4)c3CCN2C(=O)C=Cc2c(C(F)(F)F)ccc(Cl)c2F)cc1` (stereo not drawn) [Example 178]: the inhibitory constant (Ki) under setting [1] was less than 5 nM.

On to `COC(=O)Nc1ccc(NC(=O)C2c3cccc(N4CCC(N5CCCC5)CC4)c3CCN2C(=O)C=Cc2c(-n3cnnn3)ccc(Cl)c2F)cc1` (stereo not drawn) [Example 99], for which the Ki under setting [1] is less than 5 nM.

`O=C(Nc1ccc(Cl)cc1)C1c2cccc(N3CCC(N4CCCC4)CC3)c2CCN1C(=O)C=Cc1c(-n2cnnn2)ccc(Cl)c1F` (stereo not drawn) [Example 112] came in with a Ki under setting [1] of less than 5 nM.

Under setting [1], `O=C(O)c1ccc(NC(=O)[C@@H]2c3cccc(N4CCCCC4=O)c3CCN2C(=O)/C=C/c2cc(Cl)c(F)cc2-n2cnnn2)cc1` [compound 42] displayed a Ki of 5 to 10 nM.

On to `COCCOC1CCN(c2cccc3c2CCN(C(=O)/C=C/c2c(C(C)=O)ccc(Cl)c2F)C3C(=O)Nc2ccc(C(=O)O)cc2)CC1` (racemic) [Example 269], for which, under setting [1], the inhibitory constant (Ki) was less than 5 nM.

The molecule `CN1CCN(c2cccc3c2CCN(C(=O)/C=C/c2c(-n4cnnn4)ccc(Cl)c2F)C3C(=O)Nc2ccc(C(=O)OC(C)(C)C)cc2)C(=O)C1` (stereo not drawn) [Example 57, (E)-tert-butyl 4-(2-(3-(3-chloro-2-fluoro-6-(1H-tetrazol-1-yl)phenyl)acryloyl)-5-(4-methyl-2-oxopiperazin-1-yl)-1,2,3,4-tetrahydroisoquinoline-1-carboxamido)benzoate] returned a Ki under setting [1] of 5 to 10 nM.

Molecule `O=C(O)c1ccc(NC(=O)C2c3cccc(N4CCC(N5CCCC5=O)CC4)c3CCN2C(=O)C=Cc2c(-n3cnnn3)ccc(Cl)c2F)cc1` (stereo not drawn) [Example 119] came in with a Ki (substrate S-2366, Table 1) of less than 5 nM.

The molecule `O=C(O)c1ccc(NC(=O)C2c3cccc(N4CCC(O)CC4)c3CCN2C(=O)/C=C/c2c(-n3cnnn3)ccc(Cl)c2F)cc1` (racemic) [Example 148] gave an inhibition constant Ki under setting [1] of less than 5 nM.

Under setting [1], `CC(=O)c1ccc(Cl)c(F)c1/C=C/C(=O)N1CCc2c(cccc2N2CCS(=O)(=O)CC2)[C@H]1C(=O)Nc1ccc(C(=O)O)cc1` [Example 217] registered a Ki of less than 5 nM.

Molecule `O=C(O)c1ccc(NC(=O)C2c3cccc(N4CCC5(CC4)OCCO5)c3CCN2C(=O)/C=C/c2c(-n3cnnn3)ccc(Cl)c2F)cc1` (racemic) [Example 142] registered a Ki under setting [1] of less than 5 nM.

The molecule `CCOC(=O)c1ccc(NC(=O)[C@H]2c3cccc(N4CCN(C)CC4=O)c3CCN2C(=O)/C=C/c2c(-n3cnnn3)ccc(Cl)c2F)cc1` [Example 191, (R,E)-Ethyl 4-(2-(3-(3-chloro-2-fluoro-6-(1H-tetrazol-1-yl)phenyl)acryloyl)-5-(4-methyl-2-oxopiperazin-1-yl)-1,2,3,4-tetrahydroisoquinoline-1-carboxamido)benzoate, TFA Salt] had a Ki (substrate S-2366, Table 1) of 1050 nM.

Take `O=C(O)c1ccc(NC(=O)[C@@H]2c3cccc(N4CCC5(CC4)OCCO5)c3CCN2C(=O)/C=C/c2c(-n3cnnn3)ccc(Cl)c2F)cc1` [Example 143]: the Ki under setting [1] was less than 5 nM.

Turning to `CCOC(=O)c1ccc(NC(=O)[C@H]2c3cccc(N4CCCCC4=O)c3CCN2C(=O)/C=C/c2c(-n3cnnn3)ccc(Cl)c2F)cc1` [compound 44], the inhibition constant (Ki) under setting [1] was 5 to 10 nM.

Regarding `O=C(Nc1ccc2cn[nH]c2c1)C1c2cccc(N3CCOCC3=O)c2CCN1C(=O)/C=C/c1c(-n2cnnn2)ccc(Cl)c1F` (racemic) [Example 47], the Ki under setting [1] was less than 5 nM.

The molecule `O=C(O)c1ccc(NC(=O)C2c3cccc(N4CCC(N5CCOCC5)CC4)c3CCN2C(=O)/C=C/c2c(-n3cnnn3)ccc(Cl)c2F)cc1` (racemic) [Example 138] displayed a Ki under setting [1] of less than 5 nM.

In turn, `CN1CCN(c2cccc3c2CC(C)(C)N(C(=O)/C=C/c2c(-n4cnnn4)ccc(Cl)c2F)[C@H]3C(=O)Nc2ccc(C(=O)O)cc2)CC1` [Example 202] showed an inhibition constant (Ki) under setting [1] of 100 to 500 nM.

As to `CCOC(=O)c1ccc(NC(=O)[C@H]2c3cccc(N4CCC(N(C)C)CC4)c3CCN2C(=O)/C=C/c2c(-n3cnnn3)ccc(Cl)c2F)cc1` [Example 128], the Ki (substrate S-2366, Table 1) came out at 133 nM.
